Patent publication US20210298305A1, “USE OF A DIFLUORO-(2-HYDROXYPROPYL)PYRIDINE COMPOUND AS A FUNGICIDE FOR CONTROL OF PHYTOPATHOGENIC FUNGI OF WHEAT” (Dow AgroSciences LLC, priority 2016, published 2021)

Key:
[1] = test system: Puccinia recondita (PUCCRT); assay: Field assessment of brown rust in spring wheat (curative tests); format: in vivo; conditions: for Test A % Control (based on AUDPC): early curative; for Test B % Control (based on AUDPC): late curative
[2] = test system: Parastagonospora nodorum (LEPTNO); assay: Field assessment of glume blotch in spring wheat (protectant and curative); format: in vivo; conditions: for 2 DC percent control based on AUDPC: 2 Day curative; for 3 DP percent control based on AUDPC: 3 Day protectant
Text: A fungicidal treatment containing Compound I, sprayed alone in an EC formulation […] and tank mixed with an adjuvant (Agnique BP-420, 50% w/w at 0.3% v/v), was applied at B37-39 growth stage of spring wheat ([…] variety) for protectant tests at rates of 25, 50, 100 and 150 g ai/ha. After three days, the wheat plants were artificially inoculated with Parastagonospora nodorum at B39 growth stage of wheat. Compound I was then applied two days later (same rates and formulations) to the plants at B39-41 growth stage of wheat (2 day curative test).

[3] = test system: Puccinia striiformis (PUCCST); assay: Field assessment of yellow (stripe) rust in winter wheat, three curative trials; conditions: tank mix with Trycol 5941
Method: A fungicidal treatment containing Compound I was assessed against yellow rust of wheat (PUCCST) in three separate field trials. In each trial, all Compound I treatments were applied in a tank mix with Trycol 5941 (50% w/w) at 0.2% v/v as an adjuvant. […] The treatment was part of an experimental trial designed as a randomized complete block with four replications and a plot of approximately 1×2 m. Treatments were applied at water volume of 200 L/ha, using a backpack plot sprayer (BKPCKAIR, 1 m band width, FLATFAN F110-03 Lurmark nozzle) and pressurized at 180 kPa. Disease severity (% visual infection) was assessed 4 times on leaf 1 (L1, flag leaf, 33-47 DAA) and 5 times on leaf 2 (L2, 27-54 DAA).
The treatment was part of an experimental trial designed as a randomized complete block with four replications and a plot of approximately 2×3 m. Treatments were applied at water volume of 200 L/ha, using a backpack precision plot sprayer (BKCKENG, 2 m band width, FFA110-015 Hardi nozzle) and pressurized at 200 kPa. Disease severity (% visual infection) was assessed following application A one time on leaf 2 (23 DAA). Following application B, disease severity was assessed 4 times on leaf 1 (11-45 DAA) and 3 times on leaf 2 (11-31 DAA).
The treatment was part of an experimental trial designed as a randomized complete block with four replications and a plot of approximately 2×3 m. Treatments were applied at water volume of 150 L/ha, using a backpack precision plot sprayer ([sequence], 2 m band width, FLAT FAN FF015 nozzle). Disease severity (% visual infection) was assessed 3 times on leaf 1 (47-68 DAA) and 4 times on leaf 2 (36-68 DAA).
Disease severity (percentage of visual diseased foliage on whole plot or leaves) in all three field trials was recorded following EPPO PP1/26 guideline prescriptions. Area under the disease progress curve (AUDPC) was calculated for each plot in each of the three trials using the sets of recorded severity data. Relative AUDPC (% control based on AUDPC) was calculated as percent of the nontreated control.

[4] = test system: mixture of Fusarium graminearum and Fusarium culmorum isolates; format: in vivo; conditions: 100 g ai/ha, with Agnique BP-420
[5] = test system: Blumeria graminis f. sp. tritici (ERYSGT); assay: Field assessment of powdery mildew in Durum wheat, three trials; format: in vivo
[6] = 25 g ai/ha, with adjuvant Agnique BP-420
[7] = 50 g ai/ha, with adjuvant Agnique BP-420
[8] = 100 g ai/ha, with adjuvant Agnique BP-420
[9] = 150 g ai/ha, with adjuvant Agnique BP-420

## N#Cc1ccc(Oc2ccc(C(F)(F)C(O)(Cn3ncnc3S)c3ccc(F)cc3F)nc2)cc1 (stereo not shown) [Compound I, 4-((6-(2-(2,4-difluorophenyl)-1,1-difluoro-2-hydroxy-3-(5-mercapto-1H-1,2,4-triazol-1-yl)propyl)pyridin-3-yl)oxy)benzonitrile]
[1]; [6]
  Test A % Control (based on AUDPC): A (76-100)
  Test B % Control (based on AUDPC): B (51-75)
[1]; 50 g ai/ha, no adjuvant
  Test A % Control (based on AUDPC): A (76-100)
  Test B % Control (based on AUDPC): A (76-100)
[1]; [7]
  Test A % Control (based on AUDPC): A (76-100)
  Test B % Control (based on AUDPC): A (76-100)
[1]; 100 g ai/ha, no adjuvant
  Test A % Control (based on AUDPC): A (76-100)
  Test B % Control (based on AUDPC): A (76-100)
[1]; [8]
  Test A % Control (based on AUDPC): A (76-100)
  Test B % Control (based on AUDPC): A (76-100)
[1]; [9]
  Test A % Control (based on AUDPC): A (76-100)
  Test B % Control (based on AUDPC): A (76-100)
[2]; [6]
  2 DC percent control based on AUDPC: C (26-50)
  3 DP percent control based on AUDPC: C (26-50)
[2]; 50 g ai/ha, no adjuvant
  2 DC percent control based on AUDPC: C (26-50)
  3 DP percent control based on AUDPC: C (26-50)
[2]; [7]
  2 DC percent control based on AUDPC: C (26-50)
  3 DP percent control based on AUDPC: C (26-50)
[2]; [8]
  2 DC percent control based on AUDPC: B (51-75)
  3 DP percent control based on AUDPC: B (51-75)
[2]; [9]
  2 DC percent control based on AUDPC: B (51-75)
  3 DP percent control based on AUDPC: B (51-75)
[3]; 50 g ai/ha
  Curative Trials (% Control), AUDPC average over three trials: B (51-75)
[3]; 100 g ai/ha
  Curative Trials (% Control), AUDPC average over three trials: B (51-75)
[3]; 150 g ai/ha
  Curative Trials (% Control), AUDPC average over three trials: B (51-75)
[4]; sprayed on heads at flowering one day before inoculation, winter wheat
  Percent Control (calculated with FHB index using incidence and % infection): B (51-75)
[4]; winter wheat crop harvest, untreated 6.0
  Yield: 8.4 t/ha
[5]; 25 g ai/ha, EC formulation, Adjuvant X (Plurafac LF 1300 EC)
  % Control (AUDPC over 3 trials): B (51-75)
[5]; 25 g ai/ha, SC formulation, Adjuvant Y (Agnique BP420 EW with Agnique FOH TDA-9)
  % Control (AUDPC over 3 trials): B (51-75)
[5]; 50 g ai/ha, EC formulation, Adjuvant X (Plurafac LF 1300 EC)
  % Control (AUDPC over 3 trials): B (51-75)
[5]; 50 g ai/ha, SC formulation, Adjuvant Y (Agnique BP420 EW with Agnique FOH TDA-9)
  % Control (AUDPC over 3 trials): B (51-75)
[5]; 75 g ai/ha, EC formulation, Adjuvant X (Plurafac LF 1300 EC)
  % Control (AUDPC over 3 trials): A (76-100)
[5]; 75 g ai/ha, SC formulation, Adjuvant Y (Agnique BP420 EW with Agnique FOH TDA-9)
  % Control (AUDPC over 3 trials): B (51-75)
[5]; 100 g ai/ha, EC formulation, Adjuvant X (Plurafac LF 1300 EC)
  % Control (AUDPC over 3 trials): A (76-100)
[5]; 100 g ai/ha, SC formulation, Adjuvant Y (Agnique BP420 EW with Agnique FOH TDA-9)
  % Control (AUDPC over 3 trials): A (76-100)
[5]; 150 g ai/ha, EC formulation, Adjuvant X (Plurafac LF 1300 EC)
  % Control (AUDPC over 3 trials): A (76-100)
[5]; 150 g ai/ha, SC formulation, Adjuvant Y (Agnique BP420 EW with Agnique FOH TDA-9)
  % Control (AUDPC over 3 trials): A (76-100)
